Laboratory results: ChEMBL document CHEMBL5614390, “Novel EGFR inhibitors against resistant L858R/T790M/C797S mutant for intervention of non-small cell lung cancer” (Eur J Med Chem, 2024)
pIC50: −log10 of the molar value.

Columns and labels:
[1] = tested on: PC-9; test: cells; conditions: Homo sapiens, PC-9, 72 h
Description: Cytotoxicity against human PC-9 cells expressing EGFR Del19/T790M/C797S mutant assessed as inhibition of cell proliferation incubated for 72 hrs by CCK8 assay

[2] = tested on: MCF7; test: cells; conditions: Homo sapiens, MCF7, 72 h
Description: Cytotoxicity against human MCF7 cells assessed as inhibition of cell proliferation incubated for 72 hrs by CCK8 assay

[3] = tested on: PC-9; test: cells; conditions: Homo sapiens, PC-9, 72 h; remark: listed apart in the source
Description: Cytotoxicity against human PC-9 cells expressing EGFR Del19 mutant assessed as inhibition of cell proliferation incubated for 72 hrs by CCK8 assay

[4] = tested on: PC-9; test: cells; conditions: Homo sapiens, PC-9, 72 h; remark: listed apart in the source
Description: Cytotoxicity against human PC-9 cells expressing EGFR L858R/T790M/C797S mutant assessed as inhibition of cell proliferation incubated for 72 hrs by CCK8 assay

[5] = tested on: NCI-H1975; test: cells; conditions: Homo sapiens, NCI-H1975, 72 h
Description: Cytotoxicity against human NCI-H1975 cells expressing EGFR L858R/T790M mutant assessed as inhibition of cell proliferation incubated for 72 hrs by CCK8 assay

[6] = tested on: A-431; test: cells; conditions: Homo sapiens, A-431, 72 h
Description: Cytotoxicity against human A-431 cells assessed as inhibition of cell proliferation incubated for 72 hrs by CCK8 assay

[7] = tested on: HCC827; test: cells; conditions: Homo sapiens, HCC827, 72 h
Description: Cytotoxicity against human HCC827 cells expressing EGFR Del19 mutant assessed as inhibition of cell proliferation incubated for 72 hrs by CCK8 assay

[8] = tested on: PC-9; test: Induction of apoptosis in human PC-9 cells expressing EGFR Del19/T790M/C797S mutant assessed as early apoptotic cells at 1 uM incubated for 48 hrs by Annexin V-FITC/PI staining based flow cytometric analysis (reference value: 0.050 %); assay type: functional
[9] = tested on: PC-9; test: Induction of apoptosis in human PC-9 cells expressing EGFR Del19/T790M/C797S mutant assessed as necrotic cells at 1 uM incubated for 48 hrs by Annexin V-FITC/PI staining based flow cytometric analysis (reference value: 0.090 %); assay type: functional
[10] = tested on: PC-9; test: Antitumor activity against human PC-9 cells expressing EGFR L858R/T790M/C797S mutant xenografted in BALB/c nude mouse assessed as tumor growth inhibition at 40 mg/kg, po administered for 18 days relative to control; assay type: functional; conditions: time 18 day
[11] = tested on: PC-9; test: Induction of apoptosis in human PC-9 cells expressing EGFR L858R/T790M/C797S mutant assessed as necrotic cells at 1 uM incubated for 48 hrs by Annexin V-FITC/PI staining based flow cytometric analysis (reference value: 0.540 %); assay type: functional
[12] = tested on: PC-9; test: Induction of apoptosis in human PC-9 cells expressing EGFR L858R/T790M/C797S mutant assessed as late apoptotic cells at 1 uM incubated for 48 hrs by Annexin V-FITC/PI staining based flow cytometric analysis (reference value: 0.360 %); assay type: functional
[13] = tested on: PC-9; test: Induction of apoptosis in human PC-9 cells expressing EGFR L858R/T790M/C797S mutant assessed as viable cells at 1 uM incubated for 48 hrs by Annexin V-FITC/PI staining based flow cytometric analysis (reference value: 98.9 %); assay type: functional
[14] = tested on: PC-9; test: Induction of apoptosis in human PC-9 cells expressing EGFR L858R/T790M/C797S mutant assessed as early apoptotic cells at 1 uM incubated for 48 hrs by Annexin V-FITC/PI staining based flow cytometric analysis (reference value: 0.210 %); assay type: functional
[15] = tested on: PC-9; test: Induction of apoptosis in human PC-9 cells expressing EGFR Del19/T790M/C797S mutant assessed as viable cells at 1 uM incubated for 48 hrs by Annexin V-FITC/PI staining based flow cytometric analysis (reference value: 99.8 %); assay type: functional
[16] = tested on: PC-9; test: Induction of apoptosis in human PC-9 cells expressing EGFR Del19/T790M/C797S mutant assessed as late apoptotic cells at 1 uM incubated for 48 hrs by Annexin V-FITC/PI staining based flow cytometric analysis (reference value: 0.040 %); assay type: functional

Row | SMILES | pIC50 [1] | pIC50 [2] | pIC50 [3] | pIC50 [4] | pIC50 [5] | pIC50 [6] | pIC50 [7] | Activity [8] [%] | Activity [9] [%] | TGI [10] [%] | Activity [11] [%] | Activity [12] [%] | Activity [13] [%] | Activity [14] [%] | Activity [15] [%] | Activity [16] [%]
1 | C=CC(=O)Nc1cc(Nc2ncc(F)c(-c3ccc4cc(C(=O)NC)n(C(C)C)c4c3)n2)c(OC)cc1N1CCN(C)CC1 | 5.66 | < 5.00 | 5.68 | 5.95 | 5.94 | < 5.00 | 5.95 |  |  |  |  |  |  |  |  | 
2 | C=CC(=O)Nc1cc(Nc2ncc(F)c(-c3ccc4cc(C(=O)N(C)C)n(C(C)C)c4c3)n2)ccc1N1CCN(C(C)C)CC1 | 6.60 | 6.06 | 6.91 | 6.42 | 6.33 | 6.36 | 6.16 |  |  |  |  |  |  |  |  | 
3 | C=CC(=O)Nc1cc(Nc2ncc(F)c(-c3ccc4cc(C(=O)NC)n(C(C)C)c4c3)n2)ccc1N1CCN(C(C)C)CC1 | 6.59 | 6.34 | 6.83 | 6.86 | 6.82 | 7.34 | 6.99 |  |  |  |  |  |  |  |  | 
4 | C=CC(=O)Nc1cc(Nc2ncc(F)c(-c3ccc4cc(C(=O)NC)n(C(C)C)c4c3)n2)ccc1N(C)CCN(C)C | 7.32 | 6.80 | 7.28 | 7.13 | 7.36 | 5.99 | 6.41 |  |  |  |  |  |  |  |  | 
5 | C=CC(=O)Nc1cc(Nc2nccc(-c3cn(C)c4ccccc34)n2)c(OC)cc1N(C)CCN(C)C [OSIMERTINIB] | 5.55 | 5.45 | 7.82 |  |  |  | 7.80 | 3.39 | 4.73 | 30.9 | 0.67 | 5.56 | 89 | 4.73 | 85.5 | 6.39
6 | C=CC(=O)Nc1cc(Nc2ncc(F)c(-c3ccc4cc(C(=O)N(C)C)n(C(C)C)c4c3)n2)ccc1N1CCN(C)CC1 | 5.71 | 5.39 | 5.70 | 5.65 | 5.93 | 5.38 | 5.89 |  |  |  |  |  |  |  |  | 
7 | C=CC(=O)Nc1cc(Nc2ncc(F)c(-c3ccc4cc(C(=O)NC)n(C(C)C)c4c3)n2)c(OC)cc1N1CCN(C(C)C)CC1 | 5.64 | 5.42 | 5.99 | 6.70 | 6.32 | 5.31 | 5.66 |  |  |  |  |  |  |  |  | 
